Reference: the NIST ThermoML archive (doi:10.1016/j.fluid.2013.03.002)
Numbers after ± are expanded uncertainties.

Assays:
[1] = 101.33 kPa, Liquid, Vibrating tube method
[2] = refractive index (Na D-line) (dimensionless); conditions: 101.33 kPa, Liquid, Standard Abbe refractometry

| mass density ([1]; 293.15 K) | mass density ([1]; 298.15 K) | refractive index ([2]; 293.15 K) | refractive index ([2]; 298.15 K) | Structure (SMILES) |
| --- | --- | --- | --- | --- |
| 920.14 ± 1 kg/m3 | 915.65 ± 1 kg/m3 | 1.4225 ± 0.0005 | 1.4214 ± 0.0005 | CCCOCC(C)OCC(C)O (stereo not drawn) [1-(1-methyl-2-propoxyethoxy)-2-propanol] |
| 773.5 ± 1 kg/m3 | 769.93 ± 1 kg/m3 | 1.4342 ± 0.0006 | 1.4326 ± 0.0006 | CCCCCCCCCCCCCCCC [hexadecane] |
